{"source": "patent US20260364186A1", "about": "“Chemical Conjugates, Compositions, and Methods of Preparation and Use Thereof” (Transfection Holdings Limited, priority 2022, published 2026)", "assay_type_in_all_cases": "cell-based, human", "key": {"[1]": {"system": "NZM11 melanoma cancer cell line", "experiment": "FACS uptake of BODIPY FL conjugates, 50 nM, 5 min (Example 1)", "description": "FIG. 1. Conjugate compounds coupled to BODIPY FL were tested for uptake using 50 nM each conjugate and 5 minute incubation with HEM (human epidermal melanocytes) and melanoma cell line NZM11 (BRAF V600E mutant metastatic melanoma). Mean fluorescent intensities (MFI). For these tests, n=300-500, mean±SD. Results were from a single experiment done in triplicate. Cells were sorted by FACS.\nMaterials and methods: NZM11 is an adherent metastatic melanoma cell derived from a patient with a subcutaneous lesion on their mid back. This human metastatic melanoma is identified with code CBA-1398 from Cell bank Australia. […] Cells of NZM11 diluted in MEMα media and cells of HEMnDP (primary melanocyte cell line) diluted in media 254 were left to settle in 96-wells microplate for 48 hours. 10 μL of 10 mM stock solutions in DMSO from 138 and pantothenic acid/pantothenic acid derivatives coupled to BODIPY were diluted with HBSS to afford 100 nM solution. Then, 100 nM compounds and DMSO solutions were diluted 1:1 with MEMα media for NZM11 and media 254 for HEMnDP to afford 50 nM solutions. After the 48 hour settle time, media was removed from the cells and 200 μL of 50 nM media solutions were poured to each well and incubated for 5 minutes at 37 °C. […] The FACS results output represented the mean of the fluorescence intensities (in arbitrary units) measured for cells sorted in every sample"}, "[2]": {"system": "PBMCs / normal blood cells", "experiment": "FACS uptake of BODIPY FL conjugates in PBMCs (Example 3)", "details": "135 nM", "description": "FIG. 3A. Conjugate compounds coupled to BODIPY FL were tested for uptake using 135 nM each conjugate and 4.5 minute incubation with human lymphocytes, monocytes and neutrophils (from a healthy donor). Mean fluorescent intensities (MFI). 1,000 cells (lymphocytes), 500 cells (monocytes) and 250 cells (neutrophils) sorted by FACS. Bars represent mean±SD. Results represent a single experiment done in duplicate.\nIn addition to this, 25 mL of full blood was collected from a healthy donor in lithium-heparin vacutainer. Peripheral blood mononuclear cells (PBMCs) were collected after ficoll separation. PBMCs then were centrifuge at 400 g for 5 minutes. Supernatant was removed from the cells and resuspended with 20 mL of HBSS with a final concentration of 417,500 cells/mL. Then, 479 μL of cells suspension were poured into Eppendorf tube and 1000 μL of 200 nM drug solution in HBSS were added to afford 135 nM final drug concentration, incubated at 37 °C for 5 minutes. After incubation time, PBMCs were centrifuged at 400 g for 5 minutes. Supernatant was removed from the cells and pellet resuspended with 200 μL of HBSS. Suspension was transferred to 96 well-plate and run on FACS machine, approximately 1,000-250 cells analysed. The FACS results output represented the mean of the fluorescence intensities (in arbitrary units) measured for cells sorted in every sample."}, "[3]": {"system": "NZM011, NZM009, NZM012, NZM022 and NZM077 cells", "experiment": "Flow cytometry uptake into metastatic melanoma lines (Example 11)", "details": "200 nM, 30 minutes", "description": "FIG. 11: Uptake for compounds 124, 126, and 132 at 200 nM and 30 minute incubation with melanoma cell lines: NZM12 (NZM012) (BRAF V600E mutant metastatic melanoma, homozygous deletion CDKN2A and low invasive cell line), NZM77 (NZM077) (BRAF V600E mutant metastatic melanoma and missense NF1), NZM22 (NZM022) (BRAF G466A mutant metastatic melanoma, P53 241S/T mutant, NF1 non-frameshift insertion and PTEN epigenetic silencing). NZM9 (NZM009) (P53 179C/T mutant and homozygous silencing CDKN2A). NZM11 (NZM011) (BRAF V600E mutant metastatic melanoma and homozygous deletion CDKN2A), as positive control. Mean fluorescent intensities (MFI). 1,500-2,000 cells were obtained. Bars represent mean±SD. Results are from a single experiment done in triplicate. Cells were analysed by FACS.\nMethods: For screening, NZM011, NZM009, NZM012, NZM022 and NZM077 cells were suspended at 250 cells per μL in MEMα media and 200 μL was dispensed into 96 well plates. The cells were left to settle for 24 hours for NZM011, NZM012 and NZM077 and 48 hours for NZM009 and NZM022 at 37 °C, 5% O2, 5% CO2. Before addition to the cells, 10 μL of 10 mM stock solutions in DMSO of compounds 124, 126, and 132 were diluted with 1% FBS MEMα media to give a 200 nM solution.\nAfter the appropriate settle time, the media was removed from the 96 well plates and 200 μL of 200 nM conjugate solutions and DMSO control were dispensed to each well (in triplicate) and incubated for 30 minutes at 37 °C, 5% O2, 5% CO2. After 30 minutes, the media was removed and cells washed with PBS. Next, 100 μL of TrypLE trypsin (ThermoFisher Scientific) was added to each well and incubated for 5 minutes at 37 °C. After this, 150 μL of MEMα media (plus 1% FBS for NZM011, NZM012 and NZM077; plus 5% FBS for NZM009 and NZM022) were added. Cells were analysed by flow cytometry using a FACS biosort and FITC filter. Flow cytometry results represent the mean of the fluorescence intensities (in arbitrary units) measured for cells sorted in every sample."}}, "note": "Entries after “also recorded” stand apart in the source; their conditions may differ.", "data": [{"smiles": "CC1=CC(C)=[N+]2C1=Cc1ccc(CCCn3cc(CCNC(=O)/C=C/NC(=O)[C@H](O)C(C)(C)CO)nn3)n1[B-]2(F)F", "note": "[Compound 124]", "values": [{"measurement": "uptake (fluorescence intensities)", "setting": "[1]", "value": "significant uptake; also recorded: highest intensities; also recorded: best targeting activity, with high uptake into cancer cells"}, {"measurement": "uptake", "setting": "[2]", "value": "no significant uptake"}, {"measurement": "uptake, in words", "setting": "[3]", "value": "highest uptake levels; also recorded: consistent, selective and high level of uptake"}, {"measurement": "times greater uptake than conjugate 132", "setting": "[3]; five cell lines", "value": "1.5-3 times"}]}]}
